According to ChEMBL document CHEMBL1743141, “Membrane transporters in drug development” (Nat Rev Drug Discov, 2010):

Key:
Type in all cases: ADME
[1] = target: T1, Solute carrier family 22 member 6 (Homo sapiens, UniProt Q4U2R8); assay: Substrates of transporters of clinical importance in the absorption and disposition of drugs, OAT1
T1 sequence (Q4U2R8 whole entry): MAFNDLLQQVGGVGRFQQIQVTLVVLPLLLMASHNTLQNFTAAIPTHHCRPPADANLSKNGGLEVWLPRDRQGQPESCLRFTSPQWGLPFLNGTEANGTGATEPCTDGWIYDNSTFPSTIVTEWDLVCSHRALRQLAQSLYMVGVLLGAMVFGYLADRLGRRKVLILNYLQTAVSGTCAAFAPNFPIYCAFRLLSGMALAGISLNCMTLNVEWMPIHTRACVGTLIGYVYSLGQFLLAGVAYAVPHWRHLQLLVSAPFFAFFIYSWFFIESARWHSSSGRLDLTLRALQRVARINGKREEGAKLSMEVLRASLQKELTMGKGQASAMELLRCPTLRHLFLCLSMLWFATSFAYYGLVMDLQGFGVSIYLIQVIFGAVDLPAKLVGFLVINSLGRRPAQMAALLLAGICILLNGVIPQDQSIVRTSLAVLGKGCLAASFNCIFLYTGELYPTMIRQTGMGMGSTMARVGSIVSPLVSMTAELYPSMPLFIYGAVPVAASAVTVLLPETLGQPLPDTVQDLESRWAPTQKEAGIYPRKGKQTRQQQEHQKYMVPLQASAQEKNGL

[2] = target: T2, Organic anion transporter 3 (Homo sapiens, UniProt Q8TCC7); assay: Substrates of transporters of clinical importance in the absorption and disposition of drugs, OAT3
T2 sequence (Q8TCC7 whole entry): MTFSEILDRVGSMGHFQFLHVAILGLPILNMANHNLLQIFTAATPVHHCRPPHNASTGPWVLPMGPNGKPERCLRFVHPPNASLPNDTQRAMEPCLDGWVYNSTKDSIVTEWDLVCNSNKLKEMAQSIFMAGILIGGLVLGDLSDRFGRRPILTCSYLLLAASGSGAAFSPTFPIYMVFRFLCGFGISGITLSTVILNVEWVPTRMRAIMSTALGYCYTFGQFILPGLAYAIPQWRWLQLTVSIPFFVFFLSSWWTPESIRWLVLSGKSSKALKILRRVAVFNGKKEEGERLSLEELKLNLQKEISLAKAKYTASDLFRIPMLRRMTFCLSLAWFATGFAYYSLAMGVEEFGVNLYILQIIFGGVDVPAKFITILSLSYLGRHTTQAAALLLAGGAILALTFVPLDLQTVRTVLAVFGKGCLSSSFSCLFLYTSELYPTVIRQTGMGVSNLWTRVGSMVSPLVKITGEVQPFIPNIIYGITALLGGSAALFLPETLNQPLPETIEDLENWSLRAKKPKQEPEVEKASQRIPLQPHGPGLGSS

[3] = target: T3, ATP-binding cassette sub-family C member 4 (Homo sapiens, UniProt O15439); assay: Substrates of transporters of clinical importance in the absorption and disposition of drugs, MRP4
T3 sequence (O15439 whole entry): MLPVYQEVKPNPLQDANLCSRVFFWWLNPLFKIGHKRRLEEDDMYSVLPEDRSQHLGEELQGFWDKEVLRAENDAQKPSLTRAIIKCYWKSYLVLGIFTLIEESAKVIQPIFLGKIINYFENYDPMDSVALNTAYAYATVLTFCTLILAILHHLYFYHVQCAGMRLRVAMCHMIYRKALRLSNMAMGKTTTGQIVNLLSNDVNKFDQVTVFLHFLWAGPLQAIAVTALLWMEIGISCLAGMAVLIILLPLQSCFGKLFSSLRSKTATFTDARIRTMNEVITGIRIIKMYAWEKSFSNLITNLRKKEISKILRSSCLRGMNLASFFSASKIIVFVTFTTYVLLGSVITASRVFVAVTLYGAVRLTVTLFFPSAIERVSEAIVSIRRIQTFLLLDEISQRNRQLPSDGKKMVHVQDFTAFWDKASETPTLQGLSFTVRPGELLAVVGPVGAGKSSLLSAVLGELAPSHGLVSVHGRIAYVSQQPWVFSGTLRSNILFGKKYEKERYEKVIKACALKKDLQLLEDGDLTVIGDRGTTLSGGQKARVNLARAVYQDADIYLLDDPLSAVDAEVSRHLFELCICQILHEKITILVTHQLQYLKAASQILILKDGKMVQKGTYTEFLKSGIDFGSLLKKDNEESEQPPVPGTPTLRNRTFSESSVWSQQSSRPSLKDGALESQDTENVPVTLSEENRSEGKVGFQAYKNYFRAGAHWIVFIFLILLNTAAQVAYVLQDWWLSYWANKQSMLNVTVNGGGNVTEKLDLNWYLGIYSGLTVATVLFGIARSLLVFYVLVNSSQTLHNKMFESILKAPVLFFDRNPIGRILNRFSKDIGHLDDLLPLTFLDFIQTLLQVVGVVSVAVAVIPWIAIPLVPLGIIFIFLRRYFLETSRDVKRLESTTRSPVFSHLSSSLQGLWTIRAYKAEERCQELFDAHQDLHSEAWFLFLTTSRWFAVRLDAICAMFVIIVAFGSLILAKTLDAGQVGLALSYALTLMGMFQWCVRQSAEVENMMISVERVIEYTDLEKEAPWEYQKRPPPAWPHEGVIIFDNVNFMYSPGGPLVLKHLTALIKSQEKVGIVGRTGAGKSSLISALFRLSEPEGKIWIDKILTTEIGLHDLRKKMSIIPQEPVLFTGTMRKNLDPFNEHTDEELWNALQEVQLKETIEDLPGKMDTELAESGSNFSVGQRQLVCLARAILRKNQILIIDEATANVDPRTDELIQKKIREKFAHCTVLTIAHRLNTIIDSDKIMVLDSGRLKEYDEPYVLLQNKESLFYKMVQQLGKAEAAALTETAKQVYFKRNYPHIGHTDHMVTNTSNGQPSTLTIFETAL

[4] = target: T4, Solute carrier organic anion transporter family member 2B1 (Homo sapiens, UniProt O94956); assay: Substrates of transporters of clinical importance in the absorption and disposition of drugs, OATP2B1
T4 sequence (O94956 whole entry): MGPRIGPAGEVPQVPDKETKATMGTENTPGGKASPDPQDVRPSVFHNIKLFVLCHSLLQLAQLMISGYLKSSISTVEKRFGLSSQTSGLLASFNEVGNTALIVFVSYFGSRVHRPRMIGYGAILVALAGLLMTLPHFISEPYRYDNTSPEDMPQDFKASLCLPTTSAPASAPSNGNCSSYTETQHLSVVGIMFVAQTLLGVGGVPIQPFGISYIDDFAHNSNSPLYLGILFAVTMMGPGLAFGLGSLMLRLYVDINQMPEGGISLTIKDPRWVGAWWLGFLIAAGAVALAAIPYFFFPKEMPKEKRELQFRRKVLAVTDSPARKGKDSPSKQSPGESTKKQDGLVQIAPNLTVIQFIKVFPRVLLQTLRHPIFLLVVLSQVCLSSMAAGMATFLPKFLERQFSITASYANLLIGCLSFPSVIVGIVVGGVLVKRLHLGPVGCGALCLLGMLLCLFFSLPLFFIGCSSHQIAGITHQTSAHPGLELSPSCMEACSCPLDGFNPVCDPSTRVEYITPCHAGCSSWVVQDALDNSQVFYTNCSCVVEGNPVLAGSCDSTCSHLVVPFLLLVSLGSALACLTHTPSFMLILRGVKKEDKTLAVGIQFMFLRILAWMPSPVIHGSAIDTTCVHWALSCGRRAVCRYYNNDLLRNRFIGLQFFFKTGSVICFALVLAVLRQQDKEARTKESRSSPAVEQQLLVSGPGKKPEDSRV

SMILES | Activity [1] | Activity [2] | Activity [3] | also measured
Nc1ccn([C@H]2CC[C@@H](CO)O2)c(=O)n1 [ZALCITABINE] | transporter substrate | – | – | –
NS(=O)(=O)c1cc(C(=O)O)c(NCc2ccco2)cc1Cl [FUROSEMIDE] | – | transporter substrate | transporter substrate | –
Nc1ccn(C[C@@H](CO)OCP(=O)(O)O)c(=O)n1.O.O [CIDOFOVIR] | transporter substrate | – | – | –
CO/N=C(\C(=O)N[C@@H]1C(=O)N2C(C(=O)O)=CCS[C@H]12)c1csc(N)n1 [CEFTIZOXIME] | – | transporter substrate | – | –
CCCCNc1cc(C(=O)O)cc(S(N)(=O)=O)c1Oc1ccccc1 [BUMETANIDE] | – | transporter substrate | – | –
Cc1cn([C@H]2C[C@H](N=[N+]=[N-])[C@@H](CO)O2)c(=O)[nH]c1=O [ZIDOVUDINE] | transporter substrate | – | – | –
C[C@H](Cn1cnc2c(N)ncnc21)OCP(=O)(O)O [TENOFOVIR ANHYDROUS] | transporter substrate | – | transporter substrate | –
COc1ccc(Cl)cc1C(=O)NCCc1ccc(S(=O)(=O)NC(=O)NC2CCCCC2)cc1 [GLYBURIDE] | – | – | – | Activity [4]: transporter substrate
N[C@@H](C(=O)N[C@@H]1C(=O)N2C(C(=O)O)=C(Cl)CS[C@H]12)c1ccccc1 [CEFACLOR ANHYDROUS] | – | transporter substrate | – | –
Nc1ncnc2c1ncn2CCOCP(=O)(O)O [ADEFOVIR] | transporter substrate | – | transporter substrate | –
